Measurements taken from patent US20250195524A1, “PYRIMIDO-PYRIDAZINONE COMPOUND AS TOLL-LIKE RECEPTOR AGONIST” (SHANGHAI VISONPHARMA CO., LTD., priority 2022, published 2025).
pEC50: −log10 of the molar value.

Tests used:
human TLR8 = target: T1, human TLR8 (Homo sapiens, UniProt Q9NR97); assay: HEK-Blue hTLR8 SEAP reporter gene agonism assay; type: cell-based; details: HEK-Blue hTLR8 cells, SEAP (Quanti-blue, 650 nm), 16-22 hours incubation
T1 construct: host or cells: HEK-Blue hTLR8 (HEK293-derived reporter cells)
T1 sequence (Q9NR97 27-1041): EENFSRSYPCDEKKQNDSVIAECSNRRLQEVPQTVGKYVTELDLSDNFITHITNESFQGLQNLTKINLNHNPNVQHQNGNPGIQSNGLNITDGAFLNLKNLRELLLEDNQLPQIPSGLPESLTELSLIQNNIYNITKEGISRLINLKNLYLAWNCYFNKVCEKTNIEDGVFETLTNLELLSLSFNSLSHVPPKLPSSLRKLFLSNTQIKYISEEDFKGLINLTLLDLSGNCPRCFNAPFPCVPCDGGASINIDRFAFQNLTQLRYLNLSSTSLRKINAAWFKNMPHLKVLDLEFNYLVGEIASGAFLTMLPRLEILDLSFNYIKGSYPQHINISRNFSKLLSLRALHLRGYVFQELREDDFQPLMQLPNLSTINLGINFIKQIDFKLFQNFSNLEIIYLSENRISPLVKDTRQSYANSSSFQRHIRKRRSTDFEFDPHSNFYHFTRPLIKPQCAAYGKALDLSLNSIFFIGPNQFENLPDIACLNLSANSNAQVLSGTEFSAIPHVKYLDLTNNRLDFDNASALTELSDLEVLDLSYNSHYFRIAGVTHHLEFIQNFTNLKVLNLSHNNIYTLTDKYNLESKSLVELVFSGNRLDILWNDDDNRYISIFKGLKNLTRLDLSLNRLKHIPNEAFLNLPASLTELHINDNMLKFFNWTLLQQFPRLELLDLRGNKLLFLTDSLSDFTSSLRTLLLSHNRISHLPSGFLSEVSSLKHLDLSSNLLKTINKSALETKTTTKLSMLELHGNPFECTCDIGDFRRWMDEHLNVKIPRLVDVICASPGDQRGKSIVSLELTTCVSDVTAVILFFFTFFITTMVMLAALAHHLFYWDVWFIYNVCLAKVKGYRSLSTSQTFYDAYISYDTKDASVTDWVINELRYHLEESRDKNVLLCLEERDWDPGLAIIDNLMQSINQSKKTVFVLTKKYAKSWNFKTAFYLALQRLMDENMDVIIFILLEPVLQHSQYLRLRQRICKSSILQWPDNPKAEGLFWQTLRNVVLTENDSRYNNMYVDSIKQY
Description: (§1) The agonistic activity of the compounds of the present invention on TLR7 or TLR8 was evaluated using HEK-Blue™ cells stably expressing human TLR7 or TLR8. And the agonistic activity was assayed using their ability to induce the SEAP reporter gene under the control of the IFN-β minimal promoter fused to five NF-κB and ap-1 binding sites, specifically as follows:
(§2) HEK-Blue™ hTLR7 (Invivogen, 80,000 cells per well) or HEK-Blue™ hTLR8 (Invivogen, 60,000 cells per well) was added to a 96-well cell culture plate, the compound to be tested is added whereafter, and the final concentration of the compound(s) to be tested in the medium ranged from 0.001 to 36 μM, then incubated for 16-22 hours. SEAP levels in the cell culture medium were detected using HEK-Blue assay reagent Quanti-blue (Invivogen) according to the manufacturer's instructions. Neo2 Multifunctional Enzyme Labeler (Bio-tek) was used to determine the light absorption at 650 nm. GraphPad Prism was utilized to calculate the EC50, which is the half effective concentration of the drug.

human TLR7 = target: T2, human TLR7 (Homo sapiens, UniProt Q9NYK1); assay: HEK-Blue hTLR7 SEAP reporter gene agonism assay; type: cell-based; details: HEK-Blue hTLR7 cells, SEAP (Quanti-blue, 650 nm), 16-22 hours incubation
T2 construct: host or cells: HEK-Blue hTLR7 (HEK293-derived reporter cells)
T2 sequence (Q9NYK1 27-1049): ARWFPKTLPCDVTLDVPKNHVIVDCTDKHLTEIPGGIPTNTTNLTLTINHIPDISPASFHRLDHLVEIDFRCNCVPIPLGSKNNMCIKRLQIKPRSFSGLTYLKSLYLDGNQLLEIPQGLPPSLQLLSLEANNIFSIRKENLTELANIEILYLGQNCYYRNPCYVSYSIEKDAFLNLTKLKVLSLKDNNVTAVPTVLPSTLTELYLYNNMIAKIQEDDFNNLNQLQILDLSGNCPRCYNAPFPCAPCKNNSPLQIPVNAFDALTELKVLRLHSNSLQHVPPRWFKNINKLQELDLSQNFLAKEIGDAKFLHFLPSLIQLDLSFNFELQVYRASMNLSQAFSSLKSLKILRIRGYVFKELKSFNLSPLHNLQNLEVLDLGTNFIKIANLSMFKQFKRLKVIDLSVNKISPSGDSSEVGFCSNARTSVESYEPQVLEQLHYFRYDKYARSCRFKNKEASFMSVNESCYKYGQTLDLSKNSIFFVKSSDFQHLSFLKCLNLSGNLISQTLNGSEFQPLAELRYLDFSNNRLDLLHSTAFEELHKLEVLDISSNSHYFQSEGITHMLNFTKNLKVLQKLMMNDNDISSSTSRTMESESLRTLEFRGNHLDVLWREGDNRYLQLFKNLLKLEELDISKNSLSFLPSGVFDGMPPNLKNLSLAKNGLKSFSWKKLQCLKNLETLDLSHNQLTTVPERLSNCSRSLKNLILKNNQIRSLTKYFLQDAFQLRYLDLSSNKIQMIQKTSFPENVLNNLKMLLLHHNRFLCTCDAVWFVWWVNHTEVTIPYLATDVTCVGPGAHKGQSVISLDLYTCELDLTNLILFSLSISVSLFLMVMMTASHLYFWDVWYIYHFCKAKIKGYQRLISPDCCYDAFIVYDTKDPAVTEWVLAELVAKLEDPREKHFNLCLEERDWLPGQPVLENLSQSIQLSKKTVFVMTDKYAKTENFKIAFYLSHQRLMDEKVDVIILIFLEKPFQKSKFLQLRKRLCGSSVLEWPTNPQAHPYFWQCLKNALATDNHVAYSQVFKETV
Description: as §1, §2

Compound | pEC50 (human TLR8) | pEC50 (human TLR7)
CCCCNc1nc(N)nc2cnn(Cc3ccc(OCCNC)cc3)c(=O)c12 [Compound I-19, 2-amino-4-(butylamino)-6-(4-(2-(methylamino)ethoxy)benzyl)pyrimido[4,5-d]pyridazin-5(6H)-one] | 6.83 | 6.04
CCC[C@@H](C)Nc1nc(N)nc2cnn(Cc3ccc(C(=O)N4CCNCC4)cc3OC)c(=O)c12 [Compound I-24, (R)-2-amino-6-(2-methoxy-4-(piperazine-1-carbonyl)benzyl)-4-(pentan-2-ylamino)pyrimido[4,5-d]pyridazin-5(6H)-one] | 6.71 | 6.20
CCC[C@@H](C)Nc1nc(N)nc2cnn(Cc3ccc(CN4CCCC4)cc3OC)c(=O)c12 [Compound I-25, (R)-2-amino-6-(2-methoxy-4-(pyrrolidin-1-ylmethyl)benzyl)-4-(pentan-2-ylamino)pyrimido[4,5-d]pyridazin-5(6H)-one] | 6.83 | 6.20
CCC[C@@H](C)Nc1nc(N)nc2cnn(Cc3ccc(OCCNC)cc3)c(=O)c12 [Compound I-39, (R)-2-amino-6-(4-(2-(methylamino)ethoxy)benzyl)-4-(pentan-2-ylamino)pyrimido[4,5-d]pyridazin-5(6H)-one] | 6.74 | 6.19
CCC[C@@H](C)Nc1nc(N)nc2cnn(Cc3ccc(CN4CCCC4)cc3)c(=O)c12 [Compound I-40, (R)-2-amino-4-(pentan-2-ylamino)-6-(4-(pyrrolidin-1-ylmethyl)benzyl)pyrimido[4,5-d]pyridazin-5(6H)-one] | 7.08 | 6.05
CCC[C@@H](C)Nc1nc(N)nc2cnn(Cc3ccc(OCCNC)nc3)c(=O)c12 [Compound I-47, (R)-2-amino-6-((6-(2-(methylamino)ethoxy)pyridin-3-yl)methyl)-4-(pentan-2-ylamino)pyrimido[4,5-d]pyridazin-5(6H)-one] | 7.15 | 6.45
CCC[C@@H](C)Nc1nc(N)nc2cnn(Cc3ccc(CN4CCN(C)CC4)cc3)c(=O)c12 [Compound I-48, (R)-2-amino-6-(4-((4-methylpiperazin-1-yl)methyl)benzyl)-4-(pentan-2-ylamino)pyrimido[4,5-d]pyridazin-5(6H)-one] | 6.69 | 6.04
CCC[C@@H](C)Nc1nc(N)nc2cnn(Cc3ccc(CN(C)CCO)cc3)c(=O)c12 [Compound I-49] | 7.14 | 6.02
CCC[C@@H](C)Nc1nc(N)nc2cnn(Cc3ccc(CN4CCNCC4)cc3)c(=O)c12 [Compound I-50, (R)-2-amino-4-(pentan-2-ylamino)-6-(4-(piperazin-1-ylmethyl)benzyl)pyrimido[4,5-d]pyridazin-5(6H)-one] | 6.80 | 6.11
CCCN[C@H](C)c1ccc(Cn2ncc3nc(N)nc(N[C@H](C)CCC)c3c2=O)cc1 [Compound I-51, 2-amino-4-(((R)-pentan-2-yl)amino)-6-(4-((R)-1-(propylamino)ethyl)benzyl)pyrimido[4,5-d]pyridazine-5(6H)-one] | 6.85 | 6.05
CCCN[C@@H](C)c1ccc(Cn2ncc3nc(N)nc(N[C@H](C)CCC)c3c2=O)cc1 [Compound I-52, 2-amino-4-(((R)-pentan-2-yl)amino)-6-(4-((S)-1-(propylamino)ethyl)benzyl)pyrimido[4,5-d]pyridazine-5(6H)-one] | 6.90 | 6.11
CCC[C@@H](C)Nc1nc(N)nc2cnn(Cc3ccc(OCCNC)nc3OC)c(=O)c12 [Compound I-53, (R)-2-amino-6-((2-methoxy-6-(2-(methylamino)ethoxy)pyridin-3-yl)methyl)-4-(pentan-2-ylamino)pyrimido[4,5-d]pyridazin-5(6H)-one] | 6.76 | 6.22
CCC[C@@H](C)Nc1nc(N)nc2cnn(Cc3ccc(C4CCN(C)CC4)cc3)c(=O)c12 [Compound I-57, (R)-2-amino-6-(4-(1-methylpiperidin-4-yl)benzyl)-4-(pentan-2-ylamino)pyrimido[4,5-d]pyridazin-5(6H)-one] | 6.97 | 6.39
CCC[C@@H](C)Nc1nc(N)nc2cnn(Cc3ccc(C(=O)N4CCN(C)CC4)cc3)c(=O)c12 [Compound I-60, (R)-2-amino-6-(4-(4-methylpiperazine-1-carbonyl)benzyl)-4-(pentan-2-ylamino)pyrimido[4,5-d]pyridazin-5(6H)-one] | 6.72 | 
CCCCNc1nc(N)nc2cnn(Cc3ccc(CN4CCCC4)cn3)c(=O)c12 [Compound I-62, 2-amino-4-(butylamino)-6-((5-(pyrrolidin-1-ylmethyl)pyridin-2-yl)methyl)pyrimido[4,5-d]pyridazin-5(6H)-one] | 6.23 | 
CCC[C@@H](CC)Nc1nc(N)nc2cnn(Cc3ccc(CN4CCCC4)cc3)c(=O)c12 [Compound I-63, (R)-2-amino-4-(hexan-3-ylamino)-6-(4-(pyrrolidin-1-ylmethyl)benzyl)pyrimido[4,5-d]pyridazin-5(6H)-one] | 6.27 | 
CCC[C@@H](CO)Nc1nc(N)nc2cnn(Cc3ccc(CN4CCN(C)CC4)cc3)c(=O)c12 [Compound I-66, (S)-2-amino-4-((1-hydroxypentan-2-yl)amino)-6-(4-((4-methylpiperazin-1-yl)methyl)benzyl)pyrimido[4,5-d]pyridazin-5(6H)-one] | 7.64 | 
CCCC[C@@H](CO)Nc1nc(N)nc2cnn(Cc3ccc(CN4CCCC4)cc3)c(=O)c12 [Compound I-67, (S)-2-amino-4-((1-hydroxyhexan-2-yl)amino)-6-(4-(pyrrolidin-1-ylmethyl)benzyl)pyrimido[4,5-d]pyridazin-5(6H)-one] | 7.29 | 
CCC[C@@H](CO)Nc1nc(N)nc2cnn(Cc3ccc(C(=O)N4CCN(C)CC4)cc3)c(=O)c12 [Compound I-69, (S)-2-amino-4-((1-hydroxypentan-2-yl)amino)-6-(4-(4-methylpiperazine-1-carbonyl)benzyl)pyrimido[4,5-d]pyridazin-5(6H)-one] | 7.39 | 
CCC[C@@H](CO)Nc1nc(N)nc2cnn(Cc3ccc(C(=O)N4CC5CC(C4)N5)cc3)c(=O)c12 [Compound I-70, 6-(4-(3,6-diazabicyclo[3.1.1]heptane-3-carbonyl)benzyl)-2-amino-4-(((S)-1-hydroxypentan-2-yl)amino)pyrimido[4,5-d]pyridazin-5(6H)-one] | 7.70 | 
